Data: patent publication US8173133B2, “Acyl pseudodipeptides which carry a functionalized auxiliary arm” (OM Pharma, priority 1999, dated 2012)
In brackets after ≈: the same amount, converted by molar mass.

Assays:
bone marrow stem cells = test: bone marrow stem cell proliferation (XTT); type: cell-based, C57/BL6 mice; settings: for Max amplitude: 7 days, XTT 492 nm; for Min amplitude: blank ± 3× standard deviation; for Max concentration: concentration at maximum amplitude; for EC50 conc: concentration corresponding to 50% of maximum amplitude; for Min concentration: lowest concentration inducing a significant proliferation
From the text: 6-week old male C57/BL6 mice are killed by CO2 inhalation. The hip, femur, tibia and hind leg bones are removed. The marrow is extracted from the bone lumen by injecting Dulbecco's Modified Eagle Medium (DH medium) from the end portions which had been excised. The stem cells are washed and suspended again in DH medium supplemented with 20% foetal calf serum (FCS) The cell concentration is adjusted to 500000 cells/ml.
(§1) Products previously dissolved in DH medium supplemented with 20% FCS, amino acids and antibiotics are serially diluted directly into a microtiter plate. The products are tested in triplicate and each microtiter plate includes a negative control containing plain medium. The final volume in each well is 100 μl.
100 μl of the cell suspension are added to diluted solutions of products and the cells are incubated for 7 days in an incubator at 37° C., under 8% CO2 and a moisture saturated atmosphere. Cell proliferation is determined by measuring the […] of a chromogenic substrate XTT (2,3-bis[2-methoxy-4-nitro-5-sulphophenyl]-2H-tetrazolium-5-carboxanilide) in mitochondria of viable cells.
At the end of the incubation period, 50 μl of the XTT substrate solution (1 mg/ml XTT+0.008 mg/ml phenazine methosulfate) are added to each well. After an 8 hour incubation period at 37° C. under 8% CO2 in a moisture saturated incubator, the microtiter plates are read with a spectrophotometer at 492 nm against a reference sample at 690 nm.
Results are expressed as mean value±standard deviation and plotted as a dose versus response curve. Values for a negative control composed of DH medium (mean±standard deviation) are also graphically shown.
(§2) From this dose versus response curve, 3 curve variables are computed:
(§3) Max: maximum curve amplitude and corresponding concentration
(§4) EC50: concentration corresponding to 50% of maximum amplitude
(§5) Min: lowest concentration inducing a significant proliferation corresponding to the blank±3× standard deviation value
(§6) Concentration values corresponding to EC50 and Min are determined from line segments joining different points on the curve.
If the curve has no plateau phase but an ascending configuration for the highest concentration being tested, a “>” sign is shown before Max and EC50 values.

murine macrophage cells = test: nitric oxide production by murine macrophage cells (Griess); type: cell-based, C57/BL6 mice; settings: for Max concentration: concentration at maximum amplitude; for EC50 conc: concentration corresponding to 50% of maximum amplitude; for Min concentration: lowest concentration inducing a significant response
From the text: Six-week old male C57/BL6 mice are killed by CO2 inhalation. The hip, femur, tibia and posterior appendage bones are removed. The bone marrow is extracted from the bone lumen by injecting Dulbecco's Modified Eagle Medium (DH medium) from the end portions which had been excised. The stem cells are washed and resuspended (approximate cell concentration 4000 cells/ml) in DH medium supplemented with 20% equine serum (SH) and 30% L929 cell supernatant. L929 is a murine fibroblast cell line the supernatant fluid of which is rich in growth factor for macrophage cells (M-CSF). The cell suspension is divided into Petri dishes which are incubated for 8 days in an incubator at 37° C. under 8% CO2 and a moisture saturated atmosphere.
After 8 days, the stem cells have differentiated into mature macrophage cells. The macrophage cells are scraped off by rapid cooling, washed and resuspended in DH medium supplemented with 5% foetal calf serum (FCS), amino acids and antibiotics. The cell density is adjusted to 700 000 cells/ml.
as §1, with “5%” for “20%”, “in” for “into a”, “plates.” for “plate.”, “triplicates” for “triplicate”, “comprises” for “includes”
100 μl of cell suspension are added to diluted solutions of such products and the cells are incubated for 22 hours in an incubator at 37° C., under 8% CO2 and a moisture saturated atmosphere. At the end of the incubation period with the products, 100 μl of supernatant are withdrawn and the nitrite concentration is determined by running a Griess reaction.
100 μl of Griess reagent (5 mg/ml of sulfanilamide+0.5 mg/ml of N-(1-naphtylethylene diamine hydrochloride)) in 2.5% aq. phosphoric acid, are added to each well. The microtiter plates are read with a spectrophotometer at 562 nm wavelength against a reference sample at 690 nm. The nitrite concentration is proportional to nitric oxide content being formed. The nitrite content is determined based on a standard curve.
The results are given as mean value±standard deviation and plotted as a dose versus response curve.
as §2, §3, §4, §5, §6
If the curve has no plateau phase but an ascending configuration for the highest concentration being tested, a “>” sign is shown before “Max” and “EC50” values.

[1] = system: human peripheral blood mononuclear cells; test: α TNF production by human peripheral blood mononuclear cells; type: cell-based; settings: for α TNF produced: 18 hours
Description: Mononuclear cells of peripheral blood are recovered from buffy coats of 6 healthy donors. Such buffy coat cells are resuspended and mononuclear cells are isolated by centrifugation on a Ficoll-Paque gradient (Amersham Pharmacia). Purified mononuclear cells are resuspended into RPMI-1640 medium supplemented with 10% FCS, antibiotics, mercaptoethanol and L-glutamine. Cell concentration is adjusted to 2×10^6 viable cells/ml
100 μl of each one of these solutions of acyl dipeptide-like compounds bearing an accessory functional side chain spacer, diluted 100-, 10- or 1-fold in RPMI medium 1640, are dispensed into a microtiter plate. Samples are tested in triplicates, and each microtiter plate includes a negative control made up of plain medium. Dilutions of E. coli LPS (ranging grom 1 to 0.00001 μg/ml) are used as a positive control.
100 μl of the cell suspension are added to each well containing product dilute solutions or control. Cells are incubated with the products for 18 hours in an incubator at 37° C., under 5% CO2 and a moisture saturated atmosphere.
At the end of the incubation period, microtiter plates are centrifuged, and the supernatant fluids are pooled and frozen at −80° C. as aliquots until time of ELISA assay.
Concentration of α TNF secreted by mononuclear cells is determined by chemiluminescent ELISA (QuantiGlo #QTAOO R&D kit). 4-fold supernatant fluid dilutions are dispensed into each well of the microtiter plate to which anti-αTNF antibodies are bound. The microtiter plate is incubated for 4 hours at room temperature. After washing, peroxidase-conjugated anti-human a TNF antibody is added. Following a 2 hour incubation period and thorough washing, a chemiluminescent substrate is added and chemilunescence is read after 20 minutes. α TNF content in the supernatant fluid is determined with respect to a standard curve covering the 7000 to 0.7 pg/ml range.
Results are expressed in pg/ml of α TNF produced. Results derive from an experiment representative of acyl-dipeptide-like compound activity

[2] = system: Limulus Amoebocyte Lysate

Compound | Max amplitude (bone marrow stem cells) [O.D] | Min amplitude (bone marrow stem cells) | Max concentration (bone marrow stem cells) [µg/mL] | EC50 conc (bone marrow stem cells) [µg/mL] | Min concentration (bone marrow stem cells) [µg/mL] | Max concentration (murine macrophage cells) [µg/mL] | EC50 conc (murine macrophage cells) [µg/mL] | Min concentration (murine macrophage cells) [µg/mL] | concentration at which a significant α TNF production level is induced ([1]; only at this concentration) [µg/mL] | α TNF produced ([1]; product 1 μg/ml) [pg/mL] | α TNF produced ([1]; product 10 μg/ml) [pg/mL] | α TNF produced ([1]; product 100 μg/ml) [pg/mL] | LAL EU/mg of product [2] | LAL ng of LPS equivalent per mg of product [2] | nitric oxide production (murine macrophage cells) | α TNF production ([1]; up to 100 μg/ml)
CCCCCCCCCCCC(=O)O[C@H](CCCCCCCCCCC)CC(=O)N[C@H](CC(=O)O)C(=O)NCCC[C@H](CO)NC(=O)C[C@H](O)CCCCCCCCCCC [OM-197-MC, N—[(R)-3-dodecanoyloxytetradecanoyl]-D-aspartic acid, α-N-{(4R)-5-hydroxy-4[(R)-3-hydroxytetradecanoylamino]-pentyl}amide] | 1.75 | 0.80 O.D | 64 | 19.4 (≈ 22.3 µM) | 1.25 | 51 | 1.23 (≈ 1.42 µM) | 0.15 | 100 | 0 | 0 | 12 | 88.6 EU/mg of product | 7.4 ng of LPS equivalent per mg of product | – | –
CCCCCCCCCCCC(=O)O[C@H](CCCCCCCCCCC)CC(=O)NC(CCOP(=O)(O)O)C(=O)NCCC[C@H](COC(=O)CCCCCN)NC(=O)C[C@H](O)CCCCCCCCCCC (mixture of isomers) [OM-197-MP-AC (R/S, R), (3RS,9R)-3-[(R)-3-dodecanoyloxytetradecanoylamino]-4oxo-5-aza-9-[(R)-3-hydroxytetradecanoylamino]-decan-10-ol 1-dihydrogen-phosphate(6-aminohexanoate)] | 2.12 | 0.80 O.D | 25 | 3.1 (≈ 2.96 µM) | 0.71 | > 100 | > 10.69 | 1.04 | – | 244 | 156 | 160 | 0.14 EU/mg of product | 0.011 ng of LPS equivalent per mg of product | higher proliferation response as compared to positive control | –
CCCCCCCCCCCC(=O)O[C@H](CCCCCCCCCCC)CC(=O)N[C@H](CC(=O)O)C(=O)NCCC[C@H](COC(=O)CCCCCO)NC(=O)C[C@H](O)CCCCCCCCCCC [OM-197-MC-FV7, N—[(R)-3-dodecanoyloxytetradecanoylamino]-D-aspartic acid, α-N-{(4R)-5-hydroxy-4-[(R)-3-hydroxytetradecanoylamino]pentyl}amide 5-O-(6-hydroxyhexanoate)] | > 1.83 | 0.80 O.D | > 100 | > 33.1 | 6.58 | > 25.6 | > 3.70 | 0.36 | – | 0 | 80 | 76 | <0.05 EU/mg of product | <0.004 ng of LPS equivalent per mg of product | – | –
CCCCCCCCCCC[C@@H](O)CC(=O)N[C@H](CCCNC(=O)[C@@H](CC(=O)O)NC(=O)C(CCCCCC)OC(=O)CCCCCCCCC)COC(=O)CCCCCN (stereo partly drawn) [OM-197-N′(C10-20C8)-MC-AC, N-(2-decanoyloxyoctanoyl)-D-aspartic acid, α-N-{(4R)-5-(6-aminohexanoyloxy)-4-[(R)-3-hydroxytetradecanoylamino]-pentyl}amide] | 0.75 | 0.80/nd O.D | 6.25 | – | – | > 100 | 61.05 (≈ 70.2 µM) | 54.3 | – | 0 | 0 | 0 | <0.5 EU/mg of product | <0.04 ng of LPS equivalent per mg of product | minor production | do not induce any αTNF production
CCCCCCCCCCCC(=O)O[C@H](CCCCCCCCCCC)CC(=O)N[C@H](CC(=O)N[C@@H](CCCCN)C(=O)O)C(=O)NCCC[C@H](CO)NC(=O)C[C@H](O)CCCCCCCCCCC [OM-197-Lys] | 1.56 | < 0.86 O.D | 25 | 3.3 (≈ 3.31 µM) | < 0.39 | 40 | 2.23 (≈ 2.24 µM) | < 0.47 | – | 284 | 164 | 20 | 3 EU/mg of product | 0.24 ng of LPS equivalent per mg of product | – | –
CCCCCCCCCCCC(=O)O[C@H](CCCCCCCCCCC)CC(=O)N[C@H](CC(=O)O)C(=O)NCCC[C@H](COC(=O)CCCCCN)NC(=O)C[C@H](O)CCCCCCCCCCC [OM-197-MC-AC, N—[(R)-3-dodecanoyloxytetradecanoyl]-D-aspartic acid, α-N-{(4R)-5-(6-aminohexanoyloxy)-4-[(R)-3-hydroxytetradecanoylamino]pentyl}amide] | 1.62 | 0.80 O.D | 50 | 31.0 (≈ 31.6 µM) | 0.92 | 25 | 4.91 (≈ 5 µM) | 0.91 | – | 12 | 140 | 144 | – | – | – | –
